From PMC6052247, “Structurally Diverse Polyketides From the Mangrove-Derived Fungus Diaporthe sp. SCSIO 41011 With Their Anti-influenza A Virus Activities” (Frontiers in Chemistry, 2018)

Tested on: A/Puerto Rico/8/34 H274Y (H1N1)
Assay type: cell-based, Influenza A virus

First: 5-chloroisorotiorin
Second: CCCCCc1cc(=O)c2c(CC(=O)OC)cc(O)cc2o1 [Compound 14, pestalotiopsone F]
The IC50 of the first is 8.7-fold lower: 2520 ± 210 nM for the first, 21800 ± 7960 nM for the second. The first is the more potent here.

`CCCCCCCc1cc(=O)c2c(CC(=O)OCC)cc(O)cc2o1` [Compound 15, pestalotiopsone B] was tested, and the IC50 was 2560 ± 320 nM.
